According to US12637411B2, “Structurally modified opioids for prevention and treatment of diseases and conditions” (University of Padova, priority 2019, dated 2026):

Experiments:
[1] = Phase 1 Single Ascending Dose (SAD) study
Experimental: The Single Ascending Dose (SAD) study included a parallel group, double-blind, placebo-controlled design. The objectives of the study were to establish PK, PD, and safety of single dose administration. Administration involved cohorts of 5, 20, 60, 100, 150, 200 mg and N=42.

[2] = Phase 1 Multiple Ascending Dose (MAD) study; format: in vivo, healthy opioid-naïve volunteers
Experimental: The objective of the Multiple Ascending Dose (MAD) study was to establish PK, PD, and safety of once daily, 10-day administration. Administration involved cohorts of 25, 50, 75 mg and N=24.

ARPE-19 cells [3] = assay: Relative gene expression (NMDAR1, p65, TNF-α, IL-6) in ARPE-19 cells; format: cell-based; conditions: pretreatment before 1 mM L-glutamate
Experimental: Once the effect of NMDAR antagonists on nuclear translocation of p65 was verified, in order to confirm their anti-inflammatory effect, the present inventors investigated the changes of gene expression levels of the pro-inflammatory cytokines IL-6 (interleukin-6) and TNF-α, the transcription factor p65 and the NMDA receptor.
The first gene for which the level of gene expression was assessed is the 1A subunit of NMDAR receptor dimer (known as NMDAR1).

[4] = test system: brain derived neurotrophic factor (BDNF); conditions: 25 mg, 4 hours after administration, vs pre-treatment
ARPE-19 cells [5] = assay: ROS production in ARPE-19 cells; conditions: 1 mM L-Glu + 30 μM antagonist; statistical significance not reached
Experimental: This study was conducted also on the retinal cell line ARPE-19 in order to verify how NMDAR activation and blockade influence ROS production.

[6] = Female Urine Sniffing Test (FUST); conditions: 24 hr after administration, vs. vehicle
[7] = Novelty Suppressed Feeding Test (NSFT); conditions: 72 hr after administration, vs. vehicle
ARPE-19 cells [8] = assay: ARPE-19 cell viability after L-glutamate; conditions: pretreatment before 1 mM L-glutamate; dextromethadone 30 microMolar
[9] = Chronic Unpredictable Stress (CUS) protocol with SPT, FUST, NSFT; conditions: single dose
Description: The present inventors also performed behavioral analysis of the effect of both d-methadone and ketamine on rats exposed to a Chronic Unpredictable Stress (CUS) protocol.

GluR1 and PSD95 = assay: mTORC1 signaling proteins and synaptic proteins in PFC and hippocampus; conditions: rat models of depression
Description: Levels of phospho proteins were normalized to total proteins and levels of synaptic proteins were normalized the GAPDH. Results are the mean±S.E.M., n=10-12/group.

[10] = compared to dextromethadone and deuterated dextromethadone (D9, D10, D16), PCT/US2018/016159; cited from earlier work
NMDAR = conditions: cited from earlier work; for trapping: Zanos et al. 2018
Forced Swim Test (FST) = format: in vivo; conditions: drug treated vs. vehicle treated animals; d-methadone 10, 20, 40 mg/kg

Row | SMILES | IL-6 gene expression (ARPE-19 cells [3]) | NMDAR1 gene expression (ARPE-19 cells [3]) | TNF-α gene expression (ARPE-19 cells [3]) | ROS production (ARPE-19 cells [5]) | effect in the Female Urine Sniffing Test [6] | effect in the Novelty Suppressed Feeding Test [7] | effect on L-glutamate-induced cell viability decrease (ARPE-19 cells [8]) | behavioral effects of CUS (SPT, FUST, NSFT) [9] | trapping (NMDAR) [%] | further results
1 | CCC(=O)C(C[C@H](C)N(C)C)(c1ccccc1)c1ccccc1 [dextromethadone] | tendency to decrease | up to 9 times when compared to the expression level of vehicle-treated cells | restored to normal levels | tendency to decrease | significant improvements | significant improvements | protective effect on cell viability | prevented the behavioral effects of CUS | – | Maximum tolerated dose (MTD) ([1]; single dose): 150 mg; opioid effects ([1]; up to 150 mg): no clinically significant opioid effects; dissociative or psychotomimetic adverse events ([2]; at the tested doses (SAD and MAD)): did not cause dissociative or psychotomimetic adverse events; tolerability ([2]; daily doses up to 75 mg for 10 days (single doses up to 150 mg)): well tolerated; PK: Cmax, AUCtau Day 1; Cmax, AUCtau, Css Day 10 ([2]; once daily 25, 50, 75 mg, 10 days): linear PK with dose proportionality; p65 gene expression (ARPE-19 cells [3]): decrease in gene expression of p65; subjects with an increase in BDNF levels post treatment [4]: 6 of 6; levels of GluR1 and PSD95 (GluR1 and PSD95): increase
2 | COc1ccc2c(c1)[C@]13CCCC[C@@H]1[C@H](C2)N(C)CC3 [Dextromethorphan, dextromethorphan] | – | – | – | – | – | – | – | – | – | half-life [10]: significantly shorter half-life
3 | c1ccc(C2(N3CCCCC3)CCCCC2)cc1 [PCP] | – | – | – | – | – | – | – | – | 98 | –
4 | CNC1(c2ccccc2Cl)CCCCC1=O (stereo not shown) [Ketamine, ketamine] | – | – | – | – | significant improvements | significant improvements | – | prevented the behavioral effects of CUS | 86 | effect in the Forced Swim Test (immobility, climbing, swimming counts) (Forced Swim Test (FST)): significant improvements
5 | C[C@]12N[C@H](Cc3ccccc31)c1ccccc12 [MK-801] | tendency to decrease | only slightly evident | restored to normal levels | tendency to decrease | – | – | protective effect on cell viability | – | 100 | –
6 | CC12CC3CC(C)(C1)CC(N)(C3)C2 [Memantine, memantine] | – | – | – | – | – | – | – | – | – | off rate (NMDAR; NMDA receptor block): ~5 s; on rate (NMDAR; NMDA receptor block): 1 s
